According to ChEMBL document CHEMBL1142750, “Gastric cytoprotective activity of ilicic aldehyde: structure-activity relationships” (2005):

Columns and labels:
Type in all cases: functional
Rattus norvegicus [1] = experiment: Gastric cytoprotective effect as ulcerative index was calculated in male wistar rat after 100 mg/kg dosage
Rattus norvegicus [2] = experiment: Percent inhibition ethanol induced necrotic damage of gastric mucosa in male wistar rat after dosage; Dose range 25-100 mg/kg
Rattus norvegicus [3] = experiment: Gastric cytoprotective effect as ulcerative index was calculated in male wistar rat after 20 mg/kg dosage
Rattus norvegicus [4] = experiment: Percent inhibition ethanol induced necrotic damage of gastric mucosa in male wistar rat after 1 hr of contact with synthetic gastric juice; Dose range 25?100 mg/kg
Rattus norvegicus [5] = experiment: Gastric cytoprotective effect as ulcerative index was calculated in male wistar rat at 100 mg/kg dose after 2 hr of contact with synthetic gastric juice
Rattus norvegicus [6] = experiment: Gastric cytoprotective effect as ulcerative index was calculated in male wistar rat at 100 mg/kg dose after 1 hr of contact with synthetic gastric juice
Rattus norvegicus [7] = experiment: Percent inhibition ethanol induced necrotic damage of gastric mucosa in male wistar rat after 2 hr of contact with synthetic gastric juice; Dose range 25?100 mg/kg

Question: Which results are given for `C=C(C=O)[C@@H]1CC[C@@]2(C)CCCC(C)=C2C1`?
Answer: Ulcerative index (Rattus norvegicus [1]): 4.62; Inhibition of damage (Rattus norvegicus [2]): 5%

Question: How did the Ulcerative index (Rattus norvegicus [1]) turn out when `C=C(C=O)[C@@H]1CC[C@@]2(C)CCC[C@@](C)(O)C2C1` (some centres not stated) was run?
Answer: Its Ulcerative index is 0.2.

Question: What about the Inhibition of damage (Rattus norvegicus [2]) of the same compound?
Answer: Its Inhibition of damage is 96%.

Question: `C=C(CO)[C@@H]1CC[C@@]2(C)CCC[C@@](C)(O)C2C1` (some centres not stated) was tested. Which Ulcerative index (Rattus norvegicus [1]) did it give?
Answer: Its Ulcerative index is 4.8.

Question: And the Inhibition of damage (Rattus norvegicus [2])?
Answer: Its Inhibition of damage is 1%.

Question: `C=C(C(=O)O)[C@@H]1CCC2=CC=C[C@H](C)[C@@]2(C)C1` was tested. Which Ulcerative index (Rattus norvegicus [3]) did it give?
Answer: Its Ulcerative index is 3.7.

Question: And the Inhibition of damage (Rattus norvegicus [2])?
Answer: The Inhibition of damage was 23%.

Question: Which results are given for `C=C1C(=O)O[C@H]2C1CCC(C)=C1C(=O)C=C(C)[C@@H]12` (some centres not stated)?
Answer: Ulcerative index (Rattus norvegicus [1]): 0.16; Inhibition of damage (Rattus norvegicus [2]): 97%

Question: `C=C(C=O)[C@@H]1CC[C@@]2(C)CCC[C@@](C)(OC(=O)C(F)(F)F)C2C1` (some centres not stated) was tested. Which Inhibition of damage (Rattus norvegicus [4]) did it give?
Answer: The Inhibition of damage was 86%.

Question: And the Ulcerative index (Rattus norvegicus [5])?
Answer: Its Ulcerative index is 0.16.

Question: And the Ulcerative index (Rattus norvegicus [6])?
Answer: The Ulcerative index was 0.66.

Question: And the Inhibition of damage (Rattus norvegicus [7])?
Answer: Its Inhibition of damage is 96%.

Question: Which results are given for `C=C(C=O)[C@@H]1CC[C@@]2(C)CCC[C@@](C)(O[Si](C)(C)C)C2C1` (some centres not stated)?
Answer: Ulcerative index (Rattus norvegicus [1]): 2.5; Inhibition of damage (Rattus norvegicus [2]): 48%

Question: Which results are given for `C=C1C(=O)O[C@]23C[C@H]1CC[C@@]2(C)CCC[C@H]3C`?
Answer: Ulcerative index (Rattus norvegicus [1]): 2.5; Inhibition of damage (Rattus norvegicus [2]): 48%

Question: Which results are given for `C=C1C(=O)O[C@]23C[C@H]1CC[C@@]2(C)CCCC3=C`?
Answer: Ulcerative index (Rattus norvegicus [1]): 3.37; Inhibition of damage (Rattus norvegicus [2]): 30%

Question: Which results are given for `C=C1CCC[C@]2(C)CC[C@@H](C(=C)C=O)CC12` (some centres not stated)?
Answer: Ulcerative index (Rattus norvegicus [1]): 3.75; Inhibition of damage (Rattus norvegicus [2]): 23%

Question: Which Ulcerative index (Rattus norvegicus [1]) does the source give for `C=C(C(=O)O)[C@@H]1CC[C@@]2(C)CCC[C@@](C)(O)C2C1` (some centres not stated) here?
Answer: The Ulcerative index was 4.62.

Question: What about the Inhibition of damage (Rattus norvegicus [2]) of the same compound?
Answer: Its Inhibition of damage is 5%.

Question: For `C=C(C(=O)O)[C@@H]1CC[C@@]2(C)CCCC(C)=C2C1`, which Ulcerative index (Rattus norvegicus [1]) is on record?
Answer: The Ulcerative index was 4.

Question: And the Inhibition of damage (Rattus norvegicus [2])?
Answer: Its Inhibition of damage is 17%.

Question: For `COc1ccc2[nH]c([S+]([O-])Cc3ncc(C)c(OC)c3C)nc2c1` (configuration not stated) [OMEPRAZOLE], which Ulcerative index (Rattus norvegicus [3]) is on record?
Answer: The Ulcerative index was 3.

Question: And the Inhibition of damage (Rattus norvegicus [2])?
Answer: Its Inhibition of damage is 38%.

Question: With `C=C(C(=O)OC)[C@@H]1CCC2=CC(=O)C[C@H](C)[C@@]2(C)C1` [TESSARIC ACID METHYL ESTER] as the compound, how does the Ulcerative index (Rattus norvegicus [1]) read?
Answer: Its Ulcerative index is 4.62.

Question: And the Inhibition of damage (Rattus norvegicus [2])?
Answer: Its Inhibition of damage is 5%.

Question: `C=C(C(=O)O)[C@@H]1CCC2=CC(=O)C[C@H](C)[C@@]2(C)C1` [TESSARIC ACID] was tested. Which Ulcerative index (Rattus norvegicus [1]) did it give?
Answer: The Ulcerative index was 4.62.

Question: And the Inhibition of damage (Rattus norvegicus [2])?
Answer: The Inhibition of damage was 5%.
